Peptide text beside a SMILES is read from it. * marks the point of attachment. Palmitoyl = CCCCCCCCCCCCCCCC(=O)*
Tests used:
E. coli = assay: LIVE/DEAD SYTO9/PI bacterial viability staining, fluorescence microscopy; type: cell-based, Escherichia coli; conditions: 4, 8 and 16 µg/mL (1×, 2×, 4× MIC); at least two independent replicates
Experimental: Bacteria were inoculated in the Luria–Bertani medium and cultured with shaking at 37 °C up to the early exponential phase (A600 = 0.1). Then, 1.5 mL of the cultures were transferred to 5 mL Eppendorf tubes and treated with suitable peptides added at concentrations of 1×, 2×, or 4× MIC. For the negative control, bacteria were treated with a pure vehicle (water). Next, the cells were cultured for 1 or 2 h, as indicated. To obtain a positive control, at the end of the incubation, one portion of bacteria was collected and suspended in 200 µL of 70% ethanol for 5 min. After incubation, bacteria were collected by centrifugation (10 min, 3000× g) and washed twice with 0.85% NaCl. To determine membrane integrity, bacteria were stained with a LIVE/DEAD™ BacLight™ Bacterial Viability Kit (Thermo Fisher Scientific, Waltham, MA, USA) containing two dyes, i.e., a bacterial membrane permeable SYTO9 (green fluorescence) and an impermeable propidium iodide (red fluorescence) that stains only bacteria with damaged membrane. The staining was performed according to the manufacturer instructions. Then, bacteria were collected by centrifugation and washed twice with 0.85% NaCl. Bacteria pellets were suspended in 10 µL of 0.85% NaCl. Next, 3 µL of each suspension were spotted on agarose pads, covered with coverslips and immediately imaged using fluorescence microscope (Leica DMI4000B) with 100× objective. […]

[1] = test system: lipopolysaccharide (LPS) E. coli 055:B5; assay: Isothermal titration calorimetry, binding to LPS; conditions: ITC, two sets of sites model
Experimental: Isothermal titration calorimetry (ITC) experiments were carried out at 298.15 K using an AutoITC isothermal titration calorimeter (MicroCal Inc., GE Healthcare, Northampton, MA, USA) equipped with a 1.4491 mL sample cell and a reference cell. A typical ITC experiment involved a series of consecutive injections of 10.02 µL aliquots of the titrant (2 µL for the first injection only) into the reaction cell, at an interval of 4 min. The stirrer speed was constantly kept at 300 rpm to provide thorough mixing inside the reaction cell. Three types of ITC experiments were performed. These included lipopeptides binding to POPG, POPC, and LPS. […] Final results were evaluated with an ITC module for ORIGIN 7 software, provided by MicroCal, Inc. (Northampton, MA, USA). The binding constant, stoichiometry, and enthalpy of interactions were directly determined from ITC experiment by fitting one of the built-in curve fitting models to the experimental data points. Changes in entropy (∆S°) and the Gibbs free energy (∆G°) were calculated from the following equation: ∆G^°=−RTln(55.5Ka)=∆H^°−T∆S^° where 55.5 is the molar concentration of water, R is the gas constant (1.986 cal·mol^−1·K^−1), and T is the absolute temperature.

## CCCCCCCCCCCCCCCC(=O)NCCCC[C@H](NC(=O)[C@H](CCCCN)NC(=O)[C@@H](N)CCCCN)C(=O)N[C@@H](CCCCN)C(=O)N[C@@H](CCCCN)C(N)=O [KK(KC16)KK-NH2] (H-KKK(Palmitoyl)KK-NH2)
E. coli
  membrane integrity of E. coli cells (SYTO9/PI staining): smaller number of red-stained cells than in the case of S. epidermidis
[1]; site 1
  pKITC1, LPS E. coli 055:B5: 7.67 ± 0.29
[1]; site 2
  pKITC2, LPS E. coli 055:B5: 6.38 ± 0.14
